Source: PubChem BioAssay (NCI)
“And” between values parts separate entries of the source, which are not always exact repeats. Identical values can stand only once.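 Where inhibition never reached the appropriate level, the endpoint shown equals the highest concentration tested. Otherwise, values were interpolated linearly from a five-concentration, 48-hour dose response in 96-well plates. Here, GI50 denotes the concentration required for 50% inhibition of growth. TGI: concentration producing complete growth inhibition.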

Experiments:
Assay in all cases: inhibition of tumour cell growth, NCI panel, 48 h
DU-145 prostate = test system: DU-145 prostate
HCC-2998 colon = test system: HCC-2998 colon
HL-60(TB) leukemia = test system: HL-60(TB) leukemia
HS 578T breast = test system: HS 578T breast
KM12 colon = test system: KM12 colon
OVCAR-3 ovarian = test system: OVCAR-3 ovarian
PC-3 prostate = test system: PC-3 prostate
SNB-19 CNS = test system: SNB-19 CNS
SR leukemia = test system: SR leukemia
EKVX NSCLC = test system: EKVX NSCLC
MOLT-4 leukemia = test system: MOLT-4 leukemia

Structure (SMILES)	TGI (DU-145 prostate) [µM]	TGI (HCC-2998 colon) [µM]	TGI (HL-60(TB) leukemia) [µM]	TGI (HS 578T breast) [µM]	TGI (KM12 colon) [µM]	TGI (OVCAR-3 ovarian) [µM]	TGI (PC-3 prostate) [µM]	TGI (SNB-19 CNS) [µM]	TGI (SR leukemia) [µM]	TGI (EKVX NSCLC) [µM]	TGI (MOLT-4 leukemia) [µM]	GI50 (HL-60(TB) leukemia)	GI50 (SNB-19 CNS) [µM]	GI50 (DU-145 prostate) [µM]	GI50 (KM12 colon) [µM]	GI50 (MOLT-4 leukemia) [µM]	GI50 (OVCAR-3 ovarian) [µM]	GI50 (PC-3 prostate) [µM]	GI50 (SR leukemia) [µM]
O=C(NCCN(CCNC(=O)c1cccc(=O)n1O)CCNC(=O)c1cccc(=O)n1O)c1cccc(=O)n1O	> 100	> 100	> 100	> 100	> 100	> 100	> 100	> 100	> 100										
N#CCCN(CCC#N)c1ccc(/C=C(/NC(=O)Nc2ccccc2Cl)NC(=O)c2cc([N+](=O)[O-])ccc2Cl)cc1		> 100			> 100	> 100		> 100	> 100	> 100	> 100								
O=C(NCc1ccccc1)C1C(=O)C(=O)N(Cc2ccccc2)C1=O (stereo not drawn)		> 100	> 100		> 100	> 100		> 100	> 100	> 100	> 100								
Cc1cc(C)c(C(=O)C(C)C(c2ccccc2)c2ccc(Cl)cc2)c(C)c1 (stereo not drawn)			> 100		> 100	> 100		> 100	> 100	> 100	> 100	> 100 µM and 39.6 µM	> 100						
CN1CCN(Cc2ccccc2)CC1CC#N (stereo not drawn)	> 100	> 100	> 100		> 100	> 100		> 100	> 100	> 100	> 100								
CCC(=O)CCC1=Nc2nnc(CCCCc3nnc4n3C(=O)C(CCC(=O)CC)=N4)n2C1=O		> 100	> 100		> 100	> 100		> 100		> 100	> 100								
COc1ccc(/C=C/c2nc(=S)[nH][nH]2)cc1OC		> 100	> 100			> 100		> 100	> 100		> 100								
O=C1c2c(O)cccc2Cc2cc(CO)cc(O)c21		18.4	3.1			5.03	4.28	36.6	12.1	9.62	57.9								
Clc1ccc(N2N=C(c3cccc(Nc4ccncc4)c3)CC2c2ccc(Br)cc2)cc1 (stereo not drawn)	3.25		4.51		3.27	3.29	3.19				6.17	2.02 µM		1.8	1.73	2.34	1.78	1.57	
O=C(NC(CCCCN1C(=O)c2ccccc2C1=O)P(=O)(Oc1ccccc1)Oc1ccccc1)OCc1ccccc1 (stereo not drawn)	> 100	> 100		> 100	> 100	> 100	> 100	> 100	> 100	> 100									
CC1OC(CC2C=CCc3c(O)c4c(c(O)c32)C(=O)c2ccccc2C4=O)CC(NC(=O)C(F)(F)F)C1O (stereo not drawn)		> 100	26.7		61.4	19.2		18.7	13.5	25.7	22.5								
O=S(=O)(CF)OCCCCOS(=O)(=O)CF			> 100			> 100		> 100		> 100	> 100								
COC1OC(Cn2cc([N+](=O)[O-])nc2C)C(O)C(O)C1O (stereo not drawn)	> 100	> 100		> 100	> 100	> 100	> 100	> 100	> 100	> 100	> 100								
CCCCCCCCCCCCCCCCCCOCC(O)CO (stereo not drawn)		> 25	> 21.4		> 25	> 25		> 25		> 14.1	> 25								
CC(O)C1OC(n2ccc(=O)[nH]c2=O)CC1n1cncn1 (stereo not drawn)		> 100	> 100		> 100	> 100		> 100	> 100	> 100	> 100								
CC(=O)N1N=C(c2ccc3ccccc3c2O)CC1c1ccc(N(C)C)cc1 (stereo not drawn)	> 100	> 100		> 100	> 100	> 100	> 100		> 100		> 100								
CN(C(=O)c1ccccc1)c1ccc2c(c1)C(=O)c1ccccc1C2=O		> 100			> 100	> 100			> 100	> 100	> 100								
COC(=O)[C@H](C)N(C)C(=O)[C@H](C)N1[C@@H](c2ccccc2)COC1(C)C			> 100	> 100	> 100	> 100	> 100	> 100	> 100	> 100	> 100								
Cc1cnc2[nH]c(-c3ccc(Cl)cc3)cc(=O)c2c1	> 69.8	70.1	> 23.3	> 100	> 100	> 24.4		> 100	> 100	> 100	> 53.7								
N[C@H]1CCN(c2c(F)cc3c(=O)c(C(=O)O)cn4c3c2Oc2c-4ccc3c2ccc2ccccc23)C1	> 62.7		> 85.6		> 62.7	> 100	> 47.3	> 100	> 100	> 24.7	> 100					0.266			0.283
Cn1c(N)c(/C=C/C(=O)Oc2ccccc2)c(=O)n(C)c1=O	> 100	> 100	> 100	> 100	> 100	> 100	> 100	> 100		> 100	> 100								
C[C@H]1S[C@H](c2c(F)cccc2F)n2c1nc1ccccc12	> 100	> 100		> 100	> 100	> 100	> 100	> 100		> 100	> 100								
COC(=O)/C(=N\N)C(C(=O)C(=O)Nc1nc(=S)[nH][nH]1)c1nc2ccc([N+](=O)[O-])cc2[nH]c1=O (stereo not drawn)		> 100	> 100		> 100	> 100		> 100	> 100	> 100	> 100								
